Laboratory results: patent US20140094485A1, “SOLID STATE FORMS OF HIV INHIBITOR” (Gilead Sciences, Inc., priority 2012, published 2014)
Where a name gives a salt, the structure may show the parent alone.

Key:
[1] = Thermal gravimetric analysis (TGA); type: physicochemical; details: heating up to 175° C.; FIG. 4
Description: The TGA analysis was conducted on a […]. The thermal gravimetric curve was obtained on a sample heated at 10° C. per minute in a open cup under a nitrogen flow.

[2] = Tabletability (tablet tensile strength as a function of upper punch compression pressure); type: physicochemical; details: for Tablet Tensile Strength: immediate release formulation, Form A
From the text: As used herein, the term “tabletability” refers to the capacity of a powdered material to be transformed into a tablet of specified strength under the effect of compaction pressure. Tabletability is the tensile strength as a function of compression force and describes the effectiveness of the applied pressure in increasing the tensile strength of the tablet.

Structure (SMILES): Cc1nc2ccccc2c(-c2ccc3c4c(ccnc24)CCO3)c1[C@H](OC(C)(C)C)C(=O)O (atropisomer, axis not shown) [hemi-succinate salt of Compound (I), (2S)-2-tert-butoxy-2-(4-(2,3-dihydropyrano[4,3,2-de]quinolin-7-yl)-2-methylquinolin-3-yl)acetic acid]
- weight loss during heating [1]: minimal weight loss
- Tablet Tensile Strength ([2]; Upper Punch Compression Pressure 98 MPa): 2.17 MPa
- Tablet Tensile Strength ([2]; Upper Punch Compression Pressure 140 MPa): 2.94 MPa
- Tablet Tensile Strength ([2]; Upper Punch Compression Pressure 197 MPa): 3.18 MPa
- Tablet Tensile Strength ([2]; Upper Punch Compression Pressure 253 MPa): 3.41 MPa
- tabletability ([2]; result in words, FIG. 5): improved tabletability
